According to US10316021B2, “Heteroarylphenoxy benzamide kappa opioid ligands” (Pfizer Inc., priority 2016, dated 2019):
Like-named read-outs stand apart in the source and are kept apart here.

Tests used:
[1] = target: T1, human kappa opioid receptor (hKOR) (Homo sapiens, UniProt P41145); test: Kappa radioligand binding assay ([3H]diprenorphine, CHO cell membranes)
T1 construct: expressed in transfected cells; host or cells: CHO cells
Method: (§1) Kappa and Mu Radioligand Binding Assay:
(§2) Binding assays on membranes from CHO cells expressing human kappa or mu opioid receptors were performed according to standard procedures. Frozen cell paste was homogenized in 50 mM Tris HCl buffer (pH 7.4 @ 4 degrees C.) containing 2.0 mM MgCl2 using a Polytron and spun in a centrifuge at 40,000 g for ten minutes. The final pellet was resuspended in assay buffer (50 mM Tris HCl buffer, pH 7.4, containing 1 mM EDTA, 5 mM MgCl2). Incubations were initiated by the addition of membranes to 96-well plates containing test drugs and [^3H]diprenorphine (0.6 nM final concentration for kappa opioid receptor and 0.5 nM final concentration for mu) in a final volume of 250 μl. Non-specific binding was determined by radioligand binding in the presence of a saturating concentration of naltrexone (10 μM). After a one hour incubation period at room temperature, assay samples were rapidly filtered through PEI coated, GF/B fired Unifilter plates (PerkinElmer) and rinsed with ice-cold 50 mM Tris buffer (pH 7.4). Membrane bound [^3H]diprenorphine levels were determined by liquid scintillation counting of the filterplates in Ecolume scintillation fluid. The IC50 value (concentration at which 50% inhibition of specific binding occurs) was calculated using a logistic 4 parameter fit model of the concentration-response data. Ki values were calculated according to the Cheng Prusoff equation, Ki=IC50/(1+(L/Kd)), where L is the concentration of the radioligand used in the experiment and the Kd value is the dissociation constant for the radioligand (determined previously by saturation analysis).

[2] = target: T2, human mu opioid receptor (hMOR) (Homo sapiens, UniProt P35372); test: Mu radioligand binding assay ([3H]diprenorphine, CHO cell membranes)
T2 construct: expressed in transfected cells; host or cells: CHO cells
Method: as §1
as §2, with “The IC50 value (concentration at which 50% inhibition of specific binding occurs) was calculated using a logistic 4 parameter fit model of the concentration-response data.” left out

[3] = Table 19, geometric mean of 2-6 determinations unless otherwise indicated (Example 3: >=7), read-out: hKOR binding assay Ki
[4] = Table 19, geometric mean of 2-6 determinations unless otherwise indicated (Example 3: >=7), read-out: hMOR binding assay Ki
[5] = radioligand binding, [3H]diprenorphine, read-out: hKOR Ki
[6] = radioligand binding, [3H]diprenorphine, read-out: hMOR Ki

T2 sequence (P35372 whole entry): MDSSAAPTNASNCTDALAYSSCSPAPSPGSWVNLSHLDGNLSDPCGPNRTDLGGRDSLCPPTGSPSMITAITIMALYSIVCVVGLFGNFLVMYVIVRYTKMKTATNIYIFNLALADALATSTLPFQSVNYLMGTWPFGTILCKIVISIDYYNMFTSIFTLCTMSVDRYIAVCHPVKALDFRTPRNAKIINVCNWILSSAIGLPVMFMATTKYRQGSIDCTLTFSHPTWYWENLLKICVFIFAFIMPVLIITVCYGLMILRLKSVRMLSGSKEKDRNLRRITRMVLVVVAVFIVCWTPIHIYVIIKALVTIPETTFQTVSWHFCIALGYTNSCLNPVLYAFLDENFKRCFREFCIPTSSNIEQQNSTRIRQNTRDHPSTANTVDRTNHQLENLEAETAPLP
T1 sequence (P41145 whole entry): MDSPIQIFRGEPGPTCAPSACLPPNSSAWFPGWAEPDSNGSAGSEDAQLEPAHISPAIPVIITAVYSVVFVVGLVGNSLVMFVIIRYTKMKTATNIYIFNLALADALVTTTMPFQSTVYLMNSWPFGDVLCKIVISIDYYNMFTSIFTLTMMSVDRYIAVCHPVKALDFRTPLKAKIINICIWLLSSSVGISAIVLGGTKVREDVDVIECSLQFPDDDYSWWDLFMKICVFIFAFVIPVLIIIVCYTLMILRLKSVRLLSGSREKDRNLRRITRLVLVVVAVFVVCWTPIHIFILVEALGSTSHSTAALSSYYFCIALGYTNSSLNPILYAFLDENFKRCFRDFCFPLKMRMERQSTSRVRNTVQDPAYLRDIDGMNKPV

COc1nn(C)cc1C1COCCN1Cc1ccc(Oc2ccc(C(N)=O)cc2F)cc1 (single isomer, unassigned) [Example 20, 3-fluoro-4-(4-{[3-(3-methoxy-1-methyl-1H-pyrazol-4-yl)morpholin-4-yl]methyl}phenoxy)benzamide]
Ki [1, 3]: 5.86 nM | Ki [2, 4]: 165 nM

Cc1c(C2CCCN2Cc2ccc(Oc3ccc(C(N)=O)cc3)cc2)cnn1C (racemic) [Example 36]
Ki [1, 3]: 8.53 nM | Ki [2, 4]: 20.9 nM

COc1nn(C)cc1C1COCCN1Cc1ccc(Oc2ccc(C(N)=O)cc2)cc1 (single isomer, unassigned) [Example 23, 4-(4-{[3-(3-methoxy-1-methyl-1H-pyrazol-4-yl)morpholin-4-yl]methyl}phenoxy)benzamide]
Ki [1, 3]: 3.22 nM | Ki [2, 4]: 73.3 nM

Cc1nn(C)cc1C1CC(F)CN1Cc1ccc(Oc2ccc(C(N)=O)cc2)cc1 (single isomer, unassigned) [Example 25, 4-(4-{[2-(1,3-dimethyl-1H-pyrazol-4-yl)-4-fluoropyrrolidin-1-yl]methyl}phenoxy) benzamide]
Ki [1, 3]: 2.7 nM | Ki [2, 4]: 391 nM

Cc1nn(C)cc1C1CCCN1Cc1ccc(Oc2ccc(C(N)=O)cc2)c(F)c1 (single isomer, unassigned; (+)) [Example 2, (+)-4-(4-{[2-(1,3-Dimethyl-1H-pyrazol-4-yl)pyrrolidin-1-yl]methyl}-2-fluorophenoxy)benzamide]
Ki [1, 3]: 3.95 nM | Ki [2, 4]: 27.8 nM

COc1nn(C)cc1C1CCCN1Cc1ccc(Oc2ccc(C(N)=O)cc2F)cc1 (single isomer, unassigned; (+)) [Example 9, (+)-3-Fluoro-4-(4-{[2-(3-methoxy-1-methyl-1H-pyrazol-4-yl)pyrrolidin-1-yl]methyl}phenoxy)benzamide]
Ki [1, 3]: 22.5 nM | Ki [2, 4]: > 352 nM

COc1nn(C)cc1C1CC(C)CN1Cc1ccc(Oc2ccc(C(N)=O)cc2F)cc1 (single isomer, unassigned) [Example 29, 3-fluoro-4-(4-{[2-(3-methoxy-1-methyl-1H-pyrazol-4-yl)-4-methylpyrrolidin-1-yl]methyl}phenoxy)benzamide]
Ki [1, 3]: 0.498 nM | Ki [2, 4]: 10.6 nM

Cc1nsc(C2CCCN2Cc2ccc(Oc3ccc(C(N)=O)cc3)cc2)n1 (single isomer, unassigned) [Example 41, 4-(4-{[2-(3-methyl-1,2,4-thiadiazol-5-yl)pyrrolidin-1-yl]methyl}phenoxy)benzamide]
Ki [1, 3]: 85.8 nM | Ki [1, 5]: > 100 nM | Selectivity hMOR/hKOR ([1]; selectivity ratio calculated by dividing the hMOR Ki by the hKOR Ki): 32 | Ki [2, 4]: 2730 nM | Ki ([2]; Table 20, radioligand binding, read-out: hMOR binding assay Ki): 2730 nM

Cc1nn(C)cc1C1CCCN1Cc1ccc(Oc2ccc(C(N)=O)cc2F)cc1 (single isomer, unassigned) [Example 5, 4-(4-{[2-(1,3-Dimethyl-1H-pyrazol-4-yl)pyrrolidin-1-yl]methyl}phenoxy)-3-fluorobenzamide]
Ki [1, 3]: 16.8 nM | Ki [2, 4]: 73.6 nM

COc1nn(C)cc1C1COCCN1Cc1ccc(Oc2ccc(C(N)=O)cc2)c(F)c1 (single isomer, unassigned) [enantiomer of Example 22, 4-(2-fluoro-4-{[3-(3-methoxy-1-methyl-1H-pyrazol-4-yl)morpholin-4-yl]methyl}phenoxy)benzamide]
Ki [1, 5]: 263 nM | Ki [2, 6]: > 564 nM

Cc1cc([C@@H]2CCCN2Cc2ccc(Oc3ccc(C(N)=O)c(O)c3)cc2)n(C)n1 [Example 27, 4-(4-{[(2S)-2-(1,3-dimethyl-1H-pyrazol-5-yl)pyrrolidin-1-yl]methyl}phenoxy)-2-hydroxybenzamide]
Ki [1, 3]: 2.07 nM | Ki [2, 4]: 121 nM

Cc1nn(C)cc1C1CCCN1Cc1ccc(Oc2ccc(C(N)=O)c(O)c2)cc1 (single isomer, unassigned; (+)) [Example 17, (+)-4-(4-{[2-(1,3-Dimethyl-1H-pyrazol-4-yl)pyrrolidin-1-yl]methyl}phenoxy)-2-hydroxybenzamide]
Ki [1, 3]: 27 nM | Ki [2, 4]: 108 nM

COc1nn(C)cc1C1CCCCN1Cc1ccc(Oc2ccc(C(N)=O)cc2)cc1 (single isomer, unassigned) [Example 21, 4-(4-{[2-(3-methoxy-1-methyl-1H-pyrazol-4-yl)piperidin-1-yl]methyl}phenoxy)benzamide]
Ki [1, 3]: 0.567 nM | Ki [2, 4]: 14.6 nM

COc1nn(C)cc1C1CC(C)CN1Cc1ccc(Oc2ccc(C(N)=O)cc2F)cc1 (single isomer, unassigned) [Example 30, 3-fluoro-4-(4-{[2-(3-methoxy-1-methyl-1H-pyrazol-4-yl)-4-methylpyrrolidin-1-yl]methyl}phenoxy)benzamide]
Ki [1, 3]: 0.417 nM | Ki [2, 4]: 9.59 nM

COc1nn(C)cc1C1CC(F)CN1Cc1ccc(Oc2ccc(C(N)=O)cc2)cc1 (stereo not drawn) [isomer of Example 24]
Ki [1, 5]: 36.3 nM | Ki [2, 6]: 1210 nM

Cn1ccc([C@@H]2CCCN2Cc2ccc(Oc3ccc(C(N)=O)cc3F)cc2)n1 [Example 19, 3-fluoro-4-(4-{[(2S)-2-(1-methyl-1H-pyrazol-3-yl)pyrrolidin-1-yl]methyl}phenoxy)benzamide]
Ki [1, 3]: 0.999 nM | Ki [2, 4]: 13.5 nM

Cn1ccc([C@@H]2CCCN2Cc2ccc(Oc3ccc(C(N)=O)c(O)c3)cc2)n1 [Example 34, 2-hydroxy-4-(4-{[(2S)-2-(1-methyl-1H-pyrazol-3-yl)pyrrolidin-1-yl]methyl}phenoxy) benzamide]
Ki [1, 3]: 0.508 nM | Ki [2, 4]: 3.98 nM

COc1nn(C)cc1C1CC(C)CN1Cc1ccc(Oc2ccc(C(N)=O)cc2F)cc1 (single isomer, unassigned) [Example 28, 3-fluoro-4-(4-{[2-(3-methoxy-1-methyl-1H-pyrazol-4-yl)-4-methylpyrrolidin-1-yl]methyl}phenoxy)benzamide]
Ki [1, 3]: 4.88 nM | Ki [2, 4]: 77.9 nM

Cc1nn(C)nc1C1CCCN1Cc1ccc(Oc2ccc(C(N)=O)cc2)c(F)c1 (single isomer, unassigned) [enantiomer of Example 39, 4-(4-{[2-(2,5-dimethyl-2H-1,2,3-triazol-4-yl)pyrrolidin-1-yl]methyl}-2-fluorophenoxy)benzamide]
Ki [1, 5]: 74.5 nM | Ki [2, 6]: 132 nM

COc1n[nH]cc1C1CCCN1Cc1ccc(Oc2ccc(C(N)=O)cc2)cc1 (single isomer, unassigned; (-)) [Example 14, (−)-4-(4-{[2-(3-Methoxy-1H-pyrazol-4-yl)pyrrolidin-1-yl]methyl}phenoxy)benzamide]
Ki [1, 3]: 6.08 nM | Ki [2, 4]: 31.3 nM

COc1nn(C)cc1C1CCCN1Cc1ccc(Oc2ccc(C(N)=O)cc2F)cc1 (racemic) [Example 7, (+/−)-3-Fluoro-4-(4-{[2-(3-methoxy-1-methyl-1H-pyrazol-4-yl)pyrrolidin-1-yl]methyl}phenoxy)benzamide]
Ki [1, 3]: 5.71 nM | Ki [2, 4]: 196 nM

COc1nn(C)cc1C1COCCN1Cc1ccc(Oc2ccc(C(N)=O)cc2)cc1 (single isomer, unassigned) [enantiomer of Example 23, 4-(4-{[3-(3-methoxy-1-methyl-1H-pyrazol-4-yl)morpholin-4-yl]methyl}phenoxy)benzamide]
Ki [1, 5]: 223 nM | Ki [2, 6]: > 564 nM

COc1nn(C)cc1C1CC(F)CN1Cc1ccc(Oc2ccc(C(N)=O)cc2)cc1 (single isomer, unassigned) [Example 24, 4-(4-{[4-fluoro-2-(3-methoxy-1-methyl-1H-pyrazol-4-yl)pyrrolidin-1-yl]methyl}phenoxy)benzamide]
Ki [1, 3]: 2.21 nM | Ki [2, 4]: 252 nM
